In patent US7273848B2, “Apolipoprotein A-I agonists and their use to treat dyslipidemic disorders” (priority 1997, dated 2007):
Non-standard residues stand in square brackets, D forms with d. Residues, ends and D or L forms follow the SMILES beside them. No end group written: not given here. Aib = CC(C)(N)C(=O)O

Legend:
[1] = molecular target: T1, LCAT (purified from human plasma) (Homo sapiens, UniProt P04180); assay: LCAT activation assay; assay type: biochemical; conditions: LCAT activation as compared with native human ApoA-I (= 100%), equivalent masses
T1 construct: from tissue; host or cells: human plasma
T1 sequence (P04180 25-440): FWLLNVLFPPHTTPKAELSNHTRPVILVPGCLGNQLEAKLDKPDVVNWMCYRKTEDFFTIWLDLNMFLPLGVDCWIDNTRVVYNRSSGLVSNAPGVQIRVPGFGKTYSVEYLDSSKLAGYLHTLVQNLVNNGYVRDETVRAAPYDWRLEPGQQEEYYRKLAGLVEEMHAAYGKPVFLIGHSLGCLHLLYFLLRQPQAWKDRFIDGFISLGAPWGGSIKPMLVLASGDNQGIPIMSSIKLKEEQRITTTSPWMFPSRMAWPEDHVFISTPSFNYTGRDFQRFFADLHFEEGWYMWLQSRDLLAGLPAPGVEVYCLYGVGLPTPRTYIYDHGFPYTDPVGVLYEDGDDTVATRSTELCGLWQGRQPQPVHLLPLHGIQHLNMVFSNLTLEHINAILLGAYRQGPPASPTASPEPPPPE
In short: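 Substrate SUVs of EPC or POPC with 14C-cholesterol (20:1 molar ratio), in 10 mM Tris, 0.14 M NaCl, 1 mM EDTA, pH 7.4, were preincubated with peptide or equal mass of plasma ApoA-I. Reaction started with human plasma LCAT; activation was measured as cholesterol-to-ester conversion relative to ApoA-I (100%).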

[2] = Circular dichroism helicity determination; assay type: physicochemical; conditions: percent helicity; for He (%) TFE: 5 μM peptide, 90% vol TFE; for He (%) TFE / He (%) SUVs: 37° C.; for He (%) free: unbound peptide 5 μM in 5 mM phosphate buffer, pH 7.4, 37° C.; for He (%) SUVs: peptide-SUV complexes (20:1 EPC:Chol., Ri=30 and Ri=50); for He (%) mics: peptide-micelle complexes, Ri=100, 37° C.
Method: Far UV circular dichroism spectra were recorded between 190 and 260 nm (in 0.5 nm or 0.2 nm increments) with a AVIV62DS spectrometer (AVIV Associates, Lakewood, N.J., USA) equipped with a thermoelectric cell holder and sample changer. The instrument was calibrated with (+)-10-[…]. Between one and three scans were collected for each sample, using 10 cm, 5 cm, 1 cm and 0.1 cm path length quartz Suprasil cells, respectively, for peptide concentrations of 10^−7 M to 10^−4 M. The bandwidth was fixed at 1.5 nm and the scan speed to 1s per wavelength step. The reported data are the mean of at least 2 or 3 independent measurements.
After background substraction, spectra were converted to molar ellipticity (θ) per residue in deg. […] dmol^−1. The peptide concentration was determined by amino acid analysis and also by absorption spectrometry on a Perkin Elmer Lambda 17 UV/Visible spectrophotometer when the peptide contained a chromophore (tryptophane, dansyl, naphtylalanine).
CD spectra were obtained with free, unbound peptide (5 μM in 5 mM phosphate buffer, pH 7.4); with peptide-SUV complexes (20:1 EPC:Chol., Ri=30 and Ri=50); with peptide-micelle complexes (1-myristoyl-2-hydroxy-sn-glycero-3-phosphatidyl choline, Ri=100); and with free, unbound peptide in the presence of 2,2,2-trifluoroethanol (TFE) (5 μM peptide, 90% vol TFE).
The SUVs were obtained by dispersing the lipids (10 mM, 20:1 EPC:Chol., Avanti Polar Lipids, AL) in phosphate buffer (5 mM, pH 7.4) with bubbling N2 for 5 min., followed by sonication (1.5 hr.) in a bath sonicator. The homogeneity of the preparation was checked by FPLC.
The micelles were obtained by dispersing the lipid (6 mM 1-myristoyl-2-hydroxy-sn-glycero-3-phosphatidyl choline, Avanti Polar Lipids, AL) in phosphate buffer (5 mM, pH 7.4) with bubbling N2 for 5 min., followed by vortexing.
To obtain the peptide-SUV complexes, SUVs were added to the peptide (5 μM in 5 mM phosphate buffer, pH 7.4) at a phospholipid-peptide molar ratio (Ri) of 30 or 50.
To obtain the peptide-micelle complexes, micelles were added to the peptide (5 μM in 5 mM phosphate buffer, pH 7.4) at a Ri of 100.
All spectra were recorded at 37° C.
The degree of helicity of the peptides in the various conditions was determined from the mean residue ellipticity at 222 nm (Chen et al., 1974, Biochemistry 13:3350-3359) or by comparing the CD spectra obtained to reference spectra available on databases (16 helical reference spectra from Provencher & Glockner, 1981, Biochemistry 20:33-37; denatured protein reference spectra from Venyaminov et al., 1993, Anal. Biochem. 214:17-24) using the CONTIN curve-fitting algorithm version 2DP, CD-1 pack (August 1982) (Provencher, 1982, Comput. Phys. Commun. 27:213-227, 229-242). Acceptable fit was determined using the statistical analysis methodology provided by the CONTIN algorithm. The error of all methods was ±5% helicity.

| Compound | ACTIVITY (%) LCAT [1] [%] | He (%) TFE [2] [%] | He (%) free [2] [%] | He (%) SUVs [2] [%] | He (%) mics [2] [%] |
| --- | --- | --- | --- | --- | --- |
| CC(C)C[C@H](NC(=O)[C@H](C)NC(=O)[C@H](CCC(=O)O)NC(=O)[C@H](CC(C)C)NC(=O)C(C)(C)NC(=O)[C@H](CCC(=O)O)NC(=O)[C@H](Cc1c[nH]c2ccccc12)NC(=O)[C@H](CC(C)C)NC(=O)[C@H](CC(C)C)NC(=O)[C@H](CCC(=O)O)NC(=O)[C@H](CCCNC(=N)N)NC(=O)[C@H](Cc1ccccc1)NC(=O)[C@H](CC(C)C)NC(=O)[C@H](CC(=O)O)NC(=O)[C@H](CC(C)C)NC(=O)[C@@H](NC(=O)[C@@H]1CCCN1)C(C)C)C(=O)N[C@@H](CCCCN)C(=O)N[C@@H](CCC(N)=O)C(=O)N[C@@H](CCCCN)C(=O)N[C@@H](CC(C)C)C(=O)N[C@@H](CCCCN)C(=O)O [compound 50, PVLDLFRELLWEXLEALKQKLK] (H-PVLDLFRELLWE[Aib]LEALKQKLK-OH) | 21 | 76 | 68 | 89 | 84 |
| CC(C)C[C@H](NC(=O)[C@H](C)NC(=O)[C@H](CCC(=O)O)NC(=O)[C@H](CC(C)C)NC(=O)C(C)(C)NC(=O)[C@H](CCC(=O)O)NC(=O)[C@H](CC(N)=O)NC(=O)[C@H](CC(C)C)NC(=O)[C@H](CC(C)C)NC(=O)[C@H](CCC(=O)O)NC(=O)[C@H](CCCNC(=N)N)NC(=O)[C@H](Cc1ccccc1)NC(=O)[C@H](CC(C)C)NC(=O)[C@H](CC(=O)O)NC(=O)[C@H](CC(C)C)NC(=O)[C@@H](NC(=O)[C@@H]1CCCN1)C(C)C)C(=O)N[C@@H](CCCCN)C(=O)N[C@@H](CCC(N)=O)C(=O)N[C@@H](CCCCN)C(=O)N[C@@H](CC(C)C)C(=O)N[C@@H](CCCCN)C(=O)O [compound 6, PVLDLFRELLNEXLEALKQKLK] (H-PVLDLFRELLNE[Aib]LEALKQKLK-OH) | 80 | 99 | 57 | 70 | 93 |
| PAADAFREAANEAAEAAKQKAK [compound 105] | 1 | 65 | 29 | 32 | 28 |
| CC(C)C[C@@H](NC(=O)[C@@H](C)NC(=O)[C@@H](CCC(=O)O)NC(=O)[C@@H](CC(C)C)NC(=O)C(C)(C)NC(=O)[C@@H](CCC(=O)O)NC(=O)[C@@H](CC(N)=O)NC(=O)[C@@H](CC(C)C)NC(=O)[C@@H](CC(C)C)NC(=O)[C@@H](CCC(=O)O)NC(=O)[C@@H](CCCNC(=N)N)NC(=O)[C@@H](Cc1ccccc1)NC(=O)[C@@H](CC(C)C)NC(=O)[C@@H](CC(=O)O)NC(=O)[C@@H](CC(C)C)NC(=O)[C@H](NC(=O)[C@H]1CCCN1)C(C)C)C(=O)N[C@H](CCCCN)C(=O)N[C@H](CCC(N)=O)C(=O)N[C@H](CCCCN)C(=O)N[C@H](CC(C)C)C(=O)N[C@H](CCCCN)C(=O)O [compound 96, pvldlfrellneXlealkqklk] (H-[dP][dV][dL][dD][dL][dF][dR][dE][dL][dL][dN][dE][Aib][dL][dE][dA][dL][dK][dQ][dK][dL][dK]-OH) | 5 | 81 | 52 | 63 | 85 |
| CC(C)C[C@H](NC(=O)[C@H](C)NC(=O)[C@H](CCC(=O)O)NC(=O)[C@H](CC(C)C)NC(=O)C(C)(C)NC(=O)[C@H](CCC(=O)O)NC(=O)[C@H](CC(N)=O)NC(=O)[C@H](CC(C)C)NC(=O)[C@H](CC(C)C)NC(=O)[C@H](Cc1c[nH]c2ccccc12)NC(=O)[C@H](CCCNC(=N)N)NC(=O)[C@H](Cc1ccccc1)NC(=O)[C@H](CC(C)C)NC(=O)[C@H](CC(=O)O)NC(=O)[C@H](CC(C)C)NC(=O)[C@@H](NC(=O)[C@@H]1CCCN1)C(C)C)C(=O)N[C@@H](CCCCN)C(=O)N[C@@H](CCC(N)=O)C(=O)N[C@@H](CCCCN)C(=O)N[C@@H](CC(C)C)C(=O)N[C@@H](CCCCN)C(=O)O [compound 108, PVLDLFRWLLNEXLEALKQKLK] (H-PVLDLFRWLLNE[Aib]LEALKQKLK-OH) | 0 | 54 | 28 | – | 55 |
| PLLELLKELLQELLEALKQKLK [compound 36] | 31 | 95 | 95 | – | 100 |
| GVLELFENLLERLLDALQKKLK [peptide 145] | 100 | 58 | 55 | – | 51 |
| PLFRELLNELLEALKQKLK [compound 55] | 19 | 75 | 38 | 78 | 72 |
| CC(C)C[C@@H](NC(=O)[C@@H](C)NC(=O)[C@@H](CCC(=O)O)NC(=O)[C@@H](CC(C)C)NC(=O)[C@@H](CC(C)C)NC(=O)[C@@H](CCC(=O)O)NC(=O)[C@@H](CCC(N)=O)NC(=O)[C@@H](CC(C)C)NC(=O)[C@@H](CC(C)C)NC(=O)[C@@H](CCC(=O)O)NC(=O)[C@@H](CCCCN)NC(=O)[C@@H](CC(C)C)NC(=O)[C@@H](CC(C)C)NC(=O)[C@@H](CCC(=O)O)NC(=O)[C@@H](CC(C)C)NC(=O)[C@@H](CC(C)C)NC(=O)[C@H]1CCCN1)C(=O)N[C@H](CCCCN)C(=O)N[C@H](CCC(N)=O)C(=O)N[C@H](CCCCN)C(=O)N[C@H](CC(C)C)C(=O)N[C@H](CCCCN)C(=O)O [compound 87, pllellkellqellealkqklk] (H-[dP][dL][dL][dE][dL][dL][dK][dE][dL][dL][dQ][dE][dL][dL][dE][dA][dL][dK][dQ][dK][dL][dK]-OH) | 7 | 100 | 100 | – | 100 |
| PVLELFENWLERLLDALQKKLK [compound 162] | 27 | – | 68 | 81 | 83 |
| PVLDLFRELWNELLEALKQKLK [peptide 15] | 60 | 68 | 55 | 64 | 60 |
| Ac-PVLDLFKELLEELKQKLK-NH2 [compound 192] | 100 | 56 | 36 | – | – |
| PVLDLFRELLELLKQKLK [compound 217] | 30 | 70 | 52 | 76 | 78 |
| PVLDEFREKLNERLEALKQKLK [peptide 109, reference compound] | 0 | 58 | 19 | 23 | 45 |
| PLLNELLEALKQKLK [compound 104] | 1 | 55 | 21 | 29 | 49 |
